Experimental findings from patent US20250382305A1 (PTC THERAPEUTICS, INC., priority 2022, published 2025) are described below.

The test system of assay [1] is Total ATXN3 (tATXN3) protein. The assay is described as follows: Endogenous Total ATXN3 (tATXN3) Protein Assay (MSD immunoassay of cell lysates). The assay is classed as cell-based. As to conditions: average IC50, total ATXN3 protein in cell lysate after 48 h with compound (Table 1). The gist of the method: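 Cells in DMEM/10% FBS were plated at 10,000 per well onto 7-point, 3.16-fold compound dilutions in duplicate for 48 h at 37° C, then lysed. Total ATXN3 in lysates was measured by MSD sandwich immunoassay: mouse anti-ATXN3 capture, rabbit anti-ATXN3 detection, SULFO-TAG anti-rabbit. Average IC50 was reported in star bins.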

A further assay has as its system ATXN3 pre-mRNA. The assay is described as follows: RT-qPCR Assay to Quantify Exon 4 Skipping in ATXN3 pre-mRNA in Cells. As to conditions: percent exon 4 skipping in ATXN3 pre-mRNA, RT-qPCR of cell lysates; average IC50. The assay is classed as cell-based. The gist of the method:
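Cells plated at 10,000/well onto a 7-point, 3.16-fold DMSO dilution series (duplicates), incubated 24 h at 37 °C, then lysed. Exon 4 skipping measured by one-step RT-qPCR (48 °C RT, 40 cycles); IC50 interpolated from dose-response fit of percent skipping.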
For orientation: In qPCR the cycle at which signal appears reflects the starting amount.

One may read the IC50 as the midpoint of a concentration-inhibition curve. Regarding `C#Cc1c([C@@H]2CCCC[C@H]2N)sc2c(NCc3ccccc3)cc(Cl)nc12` [Compound 344, 2-((1R,2R)-2-aminocyclohexyl)-N-benzyl-5-chloro-3-ethynylthieno[3,2-b]pyridin-7-amine], the IC50 (in assay [1]; in the assay with ATXN3 pre-mRNA) was 30 to 300 nM throughout.
As to “2-((3R,4S)-3-aminotetrahydro-2H-pyran-4-yl)-5-chloro-7-((thiophen-2-ylmethyl)amino)thieno[3,2-b]pyridine-3-carbonitrile and 2-((3S,4R)-3-aminotetrahydro-2H-pyran-4-yl)-5-chloro-7-((thiophen-2-ylmethyl)amino)thieno[3,2-b]pyridine-3-carbonitrile [Compound 393]”, the results for the IC50 (in assay [1]; in the assay on ATXN3 pre-mRNA) were 300 to 1000 nM and at most 30 nM, respectively.
With `Cc1c([C@H]2OCCC[C@@H]2N)sc2c(NCc3ccccc3F)cc(Cl)nc12` [Compound 33, 2-((2S,3S)-3-aminotetrahydro-2H-pyran-2-yl)-5-chloro-N-(2-fluorobenzyl)-3-methylthieno[3,2-b]pyridin-7-amine], the IC50 (in assay [1]; in the assay on ATXN3 pre-mRNA) was 30 to 300 nM throughout.
With `N[C@H]1CC=CC[C@@H]1c1sc2c(NCc3ccncc3)cc(Cl)nc2c1Cl` [Compound 203, 2-((1S,6S)-6-aminocyclohex-3-en-1-yl)-3,5-dichloro-N-(pyridin-4-ylmethyl)thieno[3,2-b]pyridin-7-amine], the half-maximal inhibitory concentration (IC50) (in assay [1]; in the assay with ATXN3 pre-mRNA) was at most 30 nM each time.
With `N[C@@H]1CCCCCC[C@H]1c1sc2c(NCc3cccs3)cc(Cl)nc2c1Cl` [Compound 97, 2-((1R,2R)-2-aminocyclooctyl)-3,5-dichloro-N-(thiophen-2-ylmethyl)thieno[3,2-b]pyridin-7-amine], the IC50 (in assay [1]; in the assay with ATXN3 pre-mRNA) was above 1000 nM throughout.
`N[C@@H]1CC=CC[C@H]1c1sc2c(NCc3ccco3)cc(Cl)nc2c1Cl` [Compound 299, 2-((1R,6R)-6-aminocyclohex-3-en-1-yl)-3,5-dichloro-N-(furan-2-ylmethyl)thieno[3,2-b]pyridin-7-amine]: the IC50 (in assay [1]; in the assay on ATXN3 pre-mRNA) was 30 to 300 nM in each case.
As for “2-((3R,4S)-3-aminotetrahydro-2H-pyran-4-yl)-5-chloro-N-(thiophen-2-ylmethyl)-3-vinylthieno[3,2-b]pyridin-7-amine and 2-((3S,4R)-3-aminotetrahydro-2H-pyran-4-yl)-5-chloro-N-(thiophen-2-ylmethyl)-3-vinylthieno[3,2-b]pyridin-7-amine [Compound 350]”, the IC50 (in assay [1]; in the assay with ATXN3 pre-mRNA) was 30 to 300 nM throughout.
Consider “2-((3R,4S)-4-aminotetrahydro-2H-pyran-3-yl)-3-bromo-5-chloro-N-(thiophen-2-ylmethyl)thieno[3,2-b]pyridin-7-amine and 2-((3S,4R)-4-aminotetrahydro-2H-pyran-3-yl)-3-bromo-5-chloro-N-(thiophen-2-ylmethyl)thieno[3,2-b]pyridin-7-amine [Compound 204]”, for which the IC50 (in assay [1]; in the assay on ATXN3 pre-mRNA) was at most 30 nM in each case.
On to `C#Cc1c([C@H]2CCCC[C@@H]2N)sc2c(NCc3ccccc3)cc(Cl)nc12` [Compound 210, 2-((1S,2S)-2-aminocyclohexyl)-N-benzyl-5-chloro-3-ethynylthieno[3,2-b]pyridin-7-amine], for which the IC50 (in assay [1]; in the assay on ATXN3 pre-mRNA) was at most 30 nM each time.
On to `N[C@H]1CC=CC[C@@H]1c1sc2c(NCc3ccco3)cc(Cl)nc2c1Br` [Compound 206, 2-((1S,6S)-6-aminocyclohex-3-en-1-yl)-3-bromo-5-chloro-N-(furan-2-ylmethyl)thieno[3,2-b]pyridin-7-amine], for which the IC50 (in assay [1]; with ATXN3 pre-mRNA) was at most 30 nM in each case.
In the case of “(1R,2R,3S)-2-amino-3-(3-bromo-5-chloro-7-((thiophen-2-ylmethyl)amino)thieno[3,2-b]pyridin-2-yl)cyclohexan-1-ol and (1S,2S,3R)-2-amino-3-(3-bromo-5-chloro-7-((thiophen-2-ylmethyl)amino)thieno[3,2-b]pyridin-2-yl)cyclohexan-1-ol [Compound 228]”, the IC50 (in assay [1]; in the assay with ATXN3 pre-mRNA) was at most 30 nM in each case.
In the case of `Cc1c([C@@H]2OCCC[C@H]2N)sc2c(NCc3cccs3)cc(Cl)nc12` (single isomer, unassigned) [Compound 44, 2-((2R,3R)-3-aminotetrahydro-2H-pyran-2-yl)-5-chloro-3-methyl-N-(thiophen-2-ylmethyl)thieno[3,2-b]pyridin-7-amine or 2-((2S,3S)-3-aminotetrahydro-2H-pyran-2-yl)-5-chloro-3-methyl-N-(thiophen-2-ylmethyl)thieno[3,2-b]pyridin-7-amine], the IC50 (in assay [1]; in the assay on ATXN3 pre-mRNA) was above 1000 nM each time.
As to `N[C@H]1CCCO[C@@H]1c1c(I)c2nc(Cl)nc(NCc3cccs3)c2n1C(F)F` [Compound 254, 6-((2S,3S)-3-aminotetrahydro-2H-pyran-2-yl)-2-chloro-5-(difluoromethyl)-7-iodo-N-(thiophen-2-ylmethyl)-5H-pyrrolo[3,2-d]pyrimidin-4-amine], the IC50 (in assay [1]; in the assay with ATXN3 pre-mRNA) was 30 to 300 nM each time.
With “6-((1R,6R)-6-aminocyclohex-3-en-1-yl-2,2,3,4,5,5-d6)-2-chloro-N-(furan-2-ylmethyl)-7-methylthieno[3,2-d]pyrimidin-4-amine and 6-((1S,6S)-6-aminocyclohex-3-en-1-yl-2,2,3,4,5,5-d6)-2-chloro-N-(furan-2-ylmethyl)-7-methylthieno[3,2-d]pyrimidin-4-amine [Compound 297]”, the IC50 (in assay [1]; in the assay on ATXN3 pre-mRNA) was 30 to 300 nM throughout.
As for `N[C@H]1CC=CC[C@@H]1c1c(Cl)c2nc(Cl)cc(NCc3ccccc3)c2n1C(F)F` [Compound 420, 2-((1S,6S)-6-aminocyclohex-3-en-1-yl)-N-benzyl-3,5-dichloro-1-(difluoromethyl)-1H-pyrrolo[3,2-b]pyridin-7-amine], the IC50 (in assay [1]; in the assay on ATXN3 pre-mRNA) was 30 to 300 nM in each case.
Turning to “2-((2R,3R)-3-aminotetrahydro-2H-pyran-2-yl)-N-benzyl-5-chlorothieno[3,2-b]pyridin-7-amine and 2-((2S,3S)-3-aminotetrahydro-2H-pyran-2-yl)-N-benzyl-5-chlorothieno[3,2-b]pyridin-7-amine [Compound 26]”, the IC50 (in assay [1]; with ATXN3 pre-mRNA) was 300 to 1000 nM throughout.
As for `CC#Cc1c([C@@H]2CCCC[C@H]2N)n(C(F)F)c2c(NCc3ccco3)nc(Cl)nc12` [Compound 318, 6-((1R,2R)-2-aminocyclohexyl)-2-chloro-5-(difluoromethyl)-N-(furan-2-ylmethyl)-7-(prop-1-yn-1-yl)-5H-pyrrolo[3,2-d]pyrimidin-4-amine], the IC50 (in assay [1]; in the assay with ATXN3 pre-mRNA) was 30 to 300 nM in each case.
With `Cc1c([C@@H]2CCCC[C@H]2N)sc2c(NCc3ccco3)cc(Cl)nc12` [Compound 401, 2-((1R,2R)-2-aminocyclohexyl)-5-chloro-N-(furan-2-ylmethyl)-3-methylthieno[3,2-b]pyridin-7-amine], the IC50 in assay [1] was above 1000 nM; in the assay with ATXN3 pre-mRNA, 300 to 1000 nM.
Regarding `[2H]C1=C([2H])C([2H])([2H])[C@@H](c2sc3c(NCc4ccco4)nc(Cl)nc3c2C)[C@H](N)C1([2H])[2H]` [Compound 449, 6-((1R,6R)-6-aminocyclohex-3-en-1-yl-2,2,3,4,5,5-d6)-2-chloro-N-(furan-2-ylmethyl)-7-methylthieno[3,2-d]pyrimidin-4-amine], the IC50 fell in the range of 30 to 300 nM in assay [1] and 300 to 1000 nM with ATXN3 pre-mRNA.
Taken in the same sequence, the figures for `CN(Cc1ccccc1)c1cc(Cl)nc2c(C#CCCCO)c([C@H]3CC=CC[C@@H]3N)sc12` [Compound 453, 5-(2-((1S,6S)-6-aminocyclohex-3-en-1-yl)-7-(benzyl(methyl)amino)-5-chlorothieno[3,2-b]pyridin-3-yl)pent-4-yn-1-ol] were 300 to 1000 nM and 300 to 1000 nM.
In the case of `N[C@H]1CC=CC[C@@H]1c1sc2c(NCc3cccs3)cc(Cl)nc2c1C#Cc1ccncc1` [Compound 395, 2-((1S,6S)-6-aminocyclohex-3-en-1-yl)-5-chloro-3-(pyridin-4-ylethynyl)-N-(thiophen-2-ylmethyl)thieno[3,2-b]pyridin-7-amine], the IC50 in assay [1] lay within 300 to 1000 nM; in the assay on ATXN3 pre-mRNA it was 30 to 300 nM.
As to `N[C@H]1CCCC[C@@H]1c1sc2c(NCc3ccco3)nc(Cl)nc2c1Br` [Compound 68, 6-((1S,2S)-2-aminocyclohexyl)-7-bromo-2-chloro-N-(furan-2-ylmethyl)thieno[3,2-d]pyrimidin-4-amine], the IC50 (in assay [1]; with ATXN3 pre-mRNA) was at most 30 nM throughout.
For the compound `N[C@H]1CCC[C@@H]1c1sc2c(NCc3cccs3)cc(Cl)nc2c1I` [Compound 162, 2-((1S,2S)-2-aminocyclopentyl)-5-chloro-3-iodo-N-(thiophen-2-ylmethyl)thieno[3,2-b]pyridin-7-amine], the IC50 (in assay [1]; with ATXN3 pre-mRNA) was at most 30 nM in each case.
Consider `C#Cc1c([C@H]2CCCC[C@@H]2N)sc2c(NCc3ccco3)cc(Cl)nc12` [Compound 357, 2-((1S,2S)-2-aminocyclohexyl)-5-chloro-3-ethynyl-N-(furan-2-ylmethyl)thieno[3,2-b]pyridin-7-amine], for which the IC50 (in assay [1]; with ATXN3 pre-mRNA) was 30 to 300 nM in each case.
Turning to `N[C@H]1CC=CC[C@@H]1c1sc2c(NCc3ccccc3)nc(Cl)nc2c1Br` [Compound 241, 6-((1S,6S)-6-aminocyclohex-3-en-1-yl)-N-benzyl-7-bromo-2-chlorothieno[3,2-d]pyrimidin-4-amine], the IC50 (in assay [1]; with ATXN3 pre-mRNA) was at most 30 nM throughout.
`N[C@H]1CCCO[C@@H]1c1sc2c(NCc3ccccc3)nc(Cl)nc2c1Br` [Compound 69, 6-((2S,3S)-3-aminotetrahydro-2H-pyran-2-yl)-N-benzyl-7-bromo-2-chlorothieno[3,2-d]pyrimidin-4-amine]: the IC50 in assay [1] is 30 to 300 nM; in the assay on ATXN3 pre-mRNA, at most 30 nM.
